This is an account of results in patent US9346809B2 (LEO PHARMA A/S, priority 2009, dated 2016).

What all share (format): biochemical
Assay [1] has as its target T1, JAK1 (aa 850-1154, catalytic domain, GST-tag) (Homo sapiens, UniProt P23458).
T1 construct: JAK1 (aa 850-1154) and TYK2 (aa 871-1187) are expressed with an N-terminally fused GST-tag; GST (N); purchased Carna Biosciences, Inc; host or cells: baculovirus expression system
The experiment in a line: JAK kinase assay (HTRF, phosphorylation of TK substrate-biotin), JAK1. The note with it: ATP at Km (7 μM); read-out: JAK1 kinase inhibitory activity (EC50 indicator). The method, then:
(§1) Human baculovirus-expressed JAK1, 2, 3 and TYK2 were purchased from Carna Biosciences, Inc. All four purified enzymes contain only the catalytic domain. JAK1 (aa 850-1154) and TYK2 (aa 871-1187) are expressed with an N-terminally fused GST-tag, and JAK2 and JAK3 with an N-terminally fused His-tag.
(§2) Inhibition of phosphorylation of a synthetic peptide was measured in an HTRF-based assay using the TK substrate-Biotin from the Cisbio HTRFKinEASE TK kit. First, 2 μl of TK solution (TK substrate-biotin in kinase buffer [1× enzymatic buffer from HTRFKinEASE TK kit, 1 mM DTT]) is added to a plate containing 1 μl prediluted compound (final assay concentration DMSO: 0.75%). Then, 5 μl kinase-ATP mix (prepared in kinase buffer) is added to the wells and the plates are incubated at RT for 20-30 min. For all four kinases a concentration of ATP that corresponded to the Km for ATP was used. The final concentrations of buffers, substrate, kinase and ATP were: JAK1: 50 mM Hepes buffer pH 7.0, 0.01% BSA, 10 mM MgCl2, 1 mM DTT, 7 μM ATP, 50 nM SEB, 1 μM TK Substrate-Biotin and 5 ng JAK1; JAK2: 50 mM Hepes buffer pH 7.0, 0.01% BSA, 5 mM MgCl2, 1 mM DTT, 4 μM ATP, 1 μM TK Substrate-Biotin and 0.1 ng JAK2; JAK3: 50 mM Hepes buffer pH 7.0, 0.01% BSA, 5 mM MgCl2, 1 mM DTT, 2 μM ATP, 1 μM TK Substrate-Biotin and 0.3 ng JAK3; TYK2: 50 mM Hepes buffer pH 7.0, 0.01% BSA, 5 mM MgCl2, 1 mM DTT, 13 μM ATP, 50 nM SEB, 1 μM TK Substrate-Biotin and 0.8 ng TYK2. Thereafter, the kinase reaction is stopped by adding 4 μl detection mix (final concentrations: 50 mM Hepes buffer pH 7.0, 0.01% BSA, 0.8 M KF, 20 mM EDTA, 42 nM Streptavidin-XL665 and 1:400 STK Ab Cryptate) and the plates are incubated overnight in the dark. The HTRF signal is read using an Envision plate reader.
(§3) In Table 1 selected JAK kinase inhibitory activities are listed with the following indicators: I: EC50<100 nM, II: 100 nM≦EC50≦500 nM and III: EC50>500 nM
(In general: TR-FRET usually uses a lanthanide donor and a delayed reading to cut background.)

In assay [2] the target is T2, JAK2 (catalytic domain, His-tag) (Homo sapiens, UniProt O60674).
T2 construct: All four purified enzymes contain only the catalytic domain; His (N); purchased Carna Biosciences, Inc; host or cells: baculovirus expression system
The experiment in a line: JAK kinase assay (HTRF, phosphorylation of TK substrate-biotin), JAK2. Particulars: ATP at Km (4 μM); read-out: JAK2 kinase inhibitory activity (EC50 indicator). The protocol: as §1, §2, §3

In assay [3] the target is T3, TYK2 (aa 871-1187, catalytic domain, GST-tag) (Homo sapiens, UniProt P29597).
T3 construct: JAK1 (aa 850-1154) and TYK2 (aa 871-1187) are expressed with an N-terminally fused GST-tag; GST (N); purchased Carna Biosciences, Inc; host or cells: baculovirus expression system
T3 sequence (P29597 871-1187): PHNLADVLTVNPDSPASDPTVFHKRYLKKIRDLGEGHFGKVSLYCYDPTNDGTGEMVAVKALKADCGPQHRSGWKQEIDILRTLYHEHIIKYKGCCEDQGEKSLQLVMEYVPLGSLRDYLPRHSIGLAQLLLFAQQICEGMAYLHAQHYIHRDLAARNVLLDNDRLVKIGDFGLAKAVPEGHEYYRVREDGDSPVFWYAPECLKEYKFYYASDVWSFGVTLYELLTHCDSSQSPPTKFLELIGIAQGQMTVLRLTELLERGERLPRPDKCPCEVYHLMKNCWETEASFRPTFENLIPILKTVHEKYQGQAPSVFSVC
The experiment in a line: JAK kinase assay (HTRF, phosphorylation of TK substrate-biotin), TYK2. The note with it: ATP at Km (13 μM); read-out: TYK2 kinase inhibitory activity (EC50 indicator). The method, then:
as §1, §2, §3

Assay [4] concerns the target T4, JAK3 (catalytic domain, His-tag) (Homo sapiens, UniProt P52333).
T4 construct: All four purified enzymes contain only the catalytic domain; His (N); purchased Carna Biosciences, Inc; host or cells: baculovirus expression system
The experiment in a line: JAK kinase assay (HTRF, phosphorylation of TK substrate-biotin), JAK3. The note with it: ATP at Km (2 μM); read-out: JAK3 kinase inhibitory activity (EC50 indicator). The method, then: as §1, §2, §3

T2 sequence (O60674 849-1124 limits assumed): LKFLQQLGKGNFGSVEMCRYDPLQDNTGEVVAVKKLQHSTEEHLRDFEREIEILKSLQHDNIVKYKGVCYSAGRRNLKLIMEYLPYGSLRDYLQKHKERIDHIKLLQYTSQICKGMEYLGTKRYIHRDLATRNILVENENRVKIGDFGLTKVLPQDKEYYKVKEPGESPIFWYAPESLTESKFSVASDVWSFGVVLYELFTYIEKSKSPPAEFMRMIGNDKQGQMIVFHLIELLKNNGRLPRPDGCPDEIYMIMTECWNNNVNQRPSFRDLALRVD
T4 sequence (P52333 822-1111 limits assumed): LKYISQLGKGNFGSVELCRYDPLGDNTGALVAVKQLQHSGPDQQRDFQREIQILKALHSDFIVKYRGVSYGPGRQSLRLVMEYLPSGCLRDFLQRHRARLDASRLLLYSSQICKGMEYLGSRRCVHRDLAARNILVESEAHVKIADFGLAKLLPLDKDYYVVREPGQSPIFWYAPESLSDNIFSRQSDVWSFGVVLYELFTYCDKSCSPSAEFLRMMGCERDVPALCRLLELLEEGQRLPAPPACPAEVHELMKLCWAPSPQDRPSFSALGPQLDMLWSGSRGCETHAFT
T1 sequence (P23458 850-1154): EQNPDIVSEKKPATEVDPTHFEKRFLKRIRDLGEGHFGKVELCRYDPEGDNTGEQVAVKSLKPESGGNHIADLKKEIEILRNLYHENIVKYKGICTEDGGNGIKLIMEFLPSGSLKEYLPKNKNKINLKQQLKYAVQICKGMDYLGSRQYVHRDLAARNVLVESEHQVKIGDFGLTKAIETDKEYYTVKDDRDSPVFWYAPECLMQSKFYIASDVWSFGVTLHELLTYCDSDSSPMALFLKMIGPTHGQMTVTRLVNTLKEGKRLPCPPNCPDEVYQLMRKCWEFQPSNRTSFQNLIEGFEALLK

For orientation: EC50 means the concentration needed to bring the measured effect to its halfway point. As to `N#Cc1ccc(CC(=O)N2CCN(c3ncnc4[nH]ccc34)CC23CC3)cc1` [Example 35, 4-{2-Oxo-2-[7-(7H-pyrrolo[2,3-d]pyrimidin-4-yl)-4,7-diazaspiro[2.5]oct-4-yl]-ethyl}benzonitrile], the EC50 in assay [1], in assay [2], in assay [3] and in assay [4] was less than 100 nM throughout.

`O=C(c1ccc2cc[nH]c2c1)N1CCN(c2ncnc3[nH]ccc23)CC12CC2` [Example 36, (1H-Indol-6-yl)-[7-(7H-pyrrolo[2,3-d]pyrimidin-4-yl)-4,7-diazaspiro[2.5]oct-4-yl]methanone]: the EC50 in assay [1] was 100 to 500 nM; in assay [2], 100 to 500 nM; in assay [3] it was more than 500 nM; in assay [4] it was more than 500 nM.

On to `CS(=O)(=O)CCC(=O)N1CCN(c2ncnc3[nH]ccc23)CC12CC2` [Example 37, 3-Methanesulfonyl-1-[7-(7H-pyrrolo[2,3-d]pyrimidin-4-yl)-4,7-diazaspiro[2.5]oct-4-yl]propan-1-one], for which the EC50 was less than 100 nM in assay [1], less than 100 nM in assay [2], more than 500 nM in assay [3] and 100 to 500 nM in assay [4].

For the compound `O=C(CC1CCCC1)N1[C@@H]2CC[C@H]1CN(c1ncnc3[nH]ccc13)C2` [Example 38, 2-Cyclopentyl-1-[3-(7H-pyrrolo[2,3-d]pyrimidin-4-yl)-3,8-diazabicyclo[3.2.1]oct-8-yl]ethanone], the EC50 in assay [1] is less than 100 nM; in assay [2], less than 100 nM; in assay [3], more than 500 nM; in assay [4] it was 100 to 500 nM.

Consider `COCCCNC(=S)N1[C@@H]2CC[C@H]1CN(c1ncnc3[nH]ccc13)C2` [Example 39, 3-(7H-Pyrrolo[2,3-d]pyrimidin-4-yl)-3,8-diazabicyclo[3.2.1]octane-8-carbothioic acid (3-methoxy-propyl)amide], for which the EC50 in assay [1] was more than 500 nM; in assay [2], 100 to 500 nM; in assay [3] it was more than 500 nM; in assay [4], more than 500 nM.

Turning to `O=C(CC(F)(F)F)N1[C@@H]2CC[C@H]1CN(c1ncnc3[nH]ccc13)C2` [Example 40, 3,3,3-Trifluoro-1-[3-(7H-pyrrolo[2,3-d]pyrimidin-4-yl)-3,8-diaza-bicyclo[3.2.1]oct-8-yl]propan-1-one], the EC50 in assay [1] is 100 to 500 nM; in assay [2] it was 100 to 500 nM; in assay [3] it was more than 500 nM; in assay [4], more than 500 nM.

Take `Cc1ccc(C(=O)N2CCN(c3ncnc4[nH]ccc34)CC23CC3)cc1C(=O)Nc1cccc(C(F)(F)F)c1` [Example 41, 2-Methyl-5-[7-(7H-pyrrolo[2,3-d]pyrimidin-4-yl)-4,7-diazaspiro[2.5]octane-4-carbonyl]-N-(3-trifluoromethylphenyl)benzamide]: the half-maximal effective concentration (EC50) is 100 to 500 nM in assay [1], more than 500 nM in assay [2], more than 500 nM in assay [3] and more than 500 nM in assay [4].

Take `O=C(c1cccnc1)N1CCN(c2ncnc3[nH]ccc23)CC12CC2` [Example 42, Pyridin-3-yl-[7-(7H-pyrrolo[2,3-d]pyrimidin-4-yl)-4,7-diazaspiro[2.5]oct-4-yl]methanone]: the EC50 in assay [1] was less than 100 nM; in assay [2] it was less than 100 nM; in assay [3], more than 500 nM; in assay [4] it was 100 to 500 nM.

On to `CC(=O)N1CCC(C(=O)N2CCN(c3ncnc4[nH]ccc34)CC23CC3)CC1` [Example 43, 1-{4-[7-(7H-Pyrrolo[2,3-d]pyrimidin-4-yl)-4,7-diazaspiro[2.5]octane-4-carbonyl]piperidin-1-yl}ethanone], for which the EC50 in assay [1] was 100 to 500 nM; in assay [2] it was 100 to 500 nM; in assay [3], more than 500 nM; in assay [4] it was 100 to 500 nM.

Turning to `N#Cc1cccc(C(=O)N2CCN(c3ncnc4[nH]ccc34)CC23CC3)c1` [Example 44, 3-[7-(7H-Pyrrolo[2,3-d]pyrimidin-4-yl)-4,7-diazaspiro[2.5]octane-4-carbonyl]benzonitrile], the EC50 in assay [1], in assay [2], in assay [3] and in assay [4] was less than 100 nM each time.

With `CC(C)(C)OC(=O)N1CCN(c2ncnc3[nH]ccc23)CC12CC2` [Example 45, 7-(7H-pyrrolo[2,3-d]pyrimidin-4-yl)-4,7-diazaspiro[2.5]octane-4-carboxylic acid tert-butyl ester], the EC50 in assay [1] was less than 100 nM; in assay [2], less than 100 nM; in assay [3], more than 500 nM; in assay [4], less than 100 nM.

Consider `O=C(NC1CCCCC1)N1[C@@H]2CC[C@H]1CN(c1ncnc3[nH]ccc13)C2` [Example 46, 3-(7H-Pyrrolo[2,3-d]pyrimidin-4-yl)-3,8-diaza-bicyclo[3.2.1]octane-8-carboxylic acid cyclohexylamide], for which the EC50 was 100 to 500 nM in assay [1], 100 to 500 nM in assay [2], more than 500 nM in assay [3] and more than 500 nM in assay [4].

Turning to `O=C1OCCC1NC(=S)N1[C@@H]2CC[C@H]1CN(c1ncnc3[nH]ccc13)C2` (stereo partly drawn) [Example 47, 3-(7H-Pyrrolo[2,3-d]pyrimidin-4-yl)-3,8-diaza-bicyclo[3.2.1]octane-8-carbothioic acid (2-oxo-tetrahydro-furan-3-yl)-amide], the EC50 is 100 to 500 nM in assay [1], 100 to 500 nM in assay [2], more than 500 nM in assay [3] and 100 to 500 nM in assay [4].

For the compound `O=C(c1ccc(C(F)(F)F)cc1)N1CCN(c2ncnc3[nH]ccc23)CC12CC2` [Example 48, [7-(7H-Pyrrolo[2,3-d]pyrimidin-4-yl)-4,7-diaza-spiro[2.5]oct-4-yl]-(4-trifluoromethylphenyl)methanone], the EC50 in assay [1] was less than 100 nM; in assay [2], less than 100 nM; in assay [3], more than 500 nM; in assay [4] it was 100 to 500 nM.

As to `NC(=O)c1ccc(C(=O)N2CCN(c3ncnc4[nH]ccc34)CC23CC3)cc1` [Example 49, 4-[7-(7H-Pyrrolo[2,3-d]pyrimidin-4-yl)-4,7-diazaspiro[2.5]octane-4-carbonyl]benzamide], the EC50 in assay [1] is less than 100 nM; in assay [2], less than 100 nM; in assay [3] it was more than 500 nM; in assay [4], 100 to 500 nM.

On to `CC(=O)N1CCCC1C(=O)N1CCN(c2ncnc3[nH]ccc23)CC12CC2` (stereo not drawn) [Example 50, 1-{2-[7-(7H-Pyrrolo[2,3-d]pyrimidin-4-yl)-4,7-diazaspiro[2.5]octane-4-carbonyl]pyrrolidin-1-yl}ethanone], for which the EC50 in assay [1], in assay [2], in assay [3] and in assay [4] was more than 500 nM throughout.

Turning to `CCCS(=O)(=O)N1[C@@H]2CC[C@H]1CN(c1ncnc3[nH]ccc13)C2` [Example 51, 4-[8-(Propane-1-sulfonyl)-3,8-diaza-bicyclo[3.2.1]oct-3-yl]-7H-pyrrolo[2,3-d]pyrimidine], the EC50 in assay [1] is 100 to 500 nM; in assay [2], 100 to 500 nM; in assay [3], more than 500 nM; in assay [4] it was more than 500 nM.

In the case of `CCOC(=O)N1[C@@H]2CC[C@H]1CN(c1ncnc3[nH]ccc13)C2` [Example 52, 3-(7H-Pyrrolo[2,3-d]pyrimidin-4-yl)-3,8-diazabicyclo[3.2.1]octane-8-carboxylic acid ethyl ester], the EC50 was 100 to 500 nM in assay [1], less than 100 nM in assay [2], 100 to 500 nM in assay [3] and 100 to 500 nM in assay [4].
